# Test results from patent US20250170132A1, “SALTS AND POLYMORPHIC FORMS OF MENIN INHIBITORS AND PHARMACEUTICAL COMPOSITIONS THEREOF” (Syndax Pharmaceuticals, Inc., priority 2023, published 2025).
# Columns and labels:
# Type in all cases: physicochemical
# [1] = Polymorph screen: slurry at 50° C.; conditions: slurry 50° C.
# Description: (§1) X-ray powder diffraction (XRPD) • Instrument: Panalytical Empyrean • Parameters: X-Ray tube Cu (Kα radiation); Power: 45 kV×40 mA • Scanning range: 2 to 40 2θ (degree) • Step size: 0.01 degree • Scanning speed: 6.33 degree (20) per minute Thermogravimetric analysis (TGA) • Instrument: TA Instruments Discovery TGA • Parameters: Ramp 10° C. per minute, 25 to 300° C., 50 mL/min N2 sweep Differential scanning calorimetry (DSC) • Instrument: TA Instruments Discovery DSC • Parameters: Ramp 10° C. per minute, up to 300° C. Polarized light microscopy (PLM) • Instrument: Nikon Eclipse Ci POL • Camera: Nikon DS-Fi3 • Software: Nikon NIS Elements
# Slurry at 50° C.—About 40 mg API was suspended and stirred in different solvents in 4 mL vials at 50° C. The solids in the slurry were characterized by XRPD after 3 days (Table 34).
# [2] = Polymorph screen: solvent drop grinding; conditions: XRPD
# Description: as §1
# Solvent drop grinding—About 30 mg API was ground with different solvents. The obtained solids were characterized by XRPD (Table 39).
# [3] = Polymorph screen: solid vapor diffusion
# Description: as §1
# Solid vapor diffusion—About 30 mg API was transferred into 4 mL vials which are placed in 20 mL glass vials containing different solvents. The solids were tested by XRPD after 7-10 days (Table 31).
# [4] = Polymorph screen: liquid vapor diffusion
# Description: as §1
# The obtained solids were characterized by XRPD after 7-10 days (Table 32).
# [5] = Solution stability studies at accelerated conditions, counterion adduct (Impurity A); conditions: solution stability at accelerated conditions
# Excerpt: Compound A monocitrate monohydrate has at least two advantageously and unexpected characteristics. […] Second, in the manufacturing process, Compound A fumarate requires a separate slurrying step which results in a solvate with an organic solvent. Compound A monocitrate monohydrate salt is isolated directly from ethanol:water, no slurrying step is required. […] Additionally, the Compound A monocitrate forms a monohydrate instead of a solvate with one or more organic molecules.
# Although this degradation pathway is more accelerated in solution it was also observed in the solid API. Formation of Impurity A was the reason why Compound A sesquifumarate API and drug product were stored at refrigerated temperatures.
smiles,measurement,setting,value
CCN(C(=O)c1cc(F)ccc1Oc1cncnc1N1CC2(CCN(C[C@H]3CC[C@H](NS(=O)(=O)CC)CC3)CC2)C1)C(C)C [Compound A monocitrate monohydrate],Crystal Form,[1]; 1-propanol,Form A
same,Crystal Form,[1]; 2-MeTHF,Form A
same,Crystal Form,[1]; ACN 9:1,Form A
same,Crystal Form,[1]; Anisole,Form A
same,Crystal Form,[1]; Cyclohexane,Form A
same,Crystal Form,[1]; Dimethoxyethane,Form A
same,Crystal Form,[1]; Ethyl acetate/MeOH 3:1,Form A
same,Crystal Form,[1]; Heptane,Form A
same,Crystal Form,[1]; IPAc,Form A
same,Crystal Form,[1]; MEK,Form A
same,Crystal Form,[1]; MTBE,Form A
same,Crystal Form,[1]; Methyl Acetate,Form A
same,Crystal Form,[1]; NMP:CPME (3:7 v/v),Form A
same,Crystal Form,[1]; Propylene glycol:Acetone 1:1,Form A
same,Crystal Form,[1]; Propylene glycol:IPA 1:1,Form A
same,Crystal Form,[1]; THF 9:1,Form A
same,Crystal Form,[1]; Toluene,Form A
same,Crystal Form,"[2]; about 30 mg API, 1,4-Dioxane",Form A
same,Crystal Form,"[2]; about 30 mg API, Acetone",Form A
same,Crystal Form,"[2]; about 30 mg API, DCM",Form A
same,Crystal Form,"[2]; about 30 mg API, EtOH",Form A
same,Crystal Form,"[2]; about 30 mg API, THF",Form A
same,Crystal Form,"[3]; solid vapor diffusion, 1,4-dioxane, RT",Form A
same,Crystal Form,"[3]; solid vapor diffusion, 2-Methyl THF, RT",Form A
same,Crystal Form,"[3]; solid vapor diffusion, CHCl3, RT",Form A
same,Crystal Form,"[3]; solid vapor diffusion, CPME, 40° C.",Form A
same,Crystal Form,"[3]; solid vapor diffusion, DCM, RT",Form A
same,Crystal Form,"[3]; solid vapor diffusion, Dimethoxyethane, 40° C.",Form A
same,Crystal Form,"[3]; solid vapor diffusion, IPAc, RT",Form A
same,Crystal Form,"[3]; solid vapor diffusion, MEK, RT",Form A
same,Crystal Form,"[3]; solid vapor diffusion, MTBE, RT",Form A
same,Crystal Form,"[3]; solid vapor diffusion, THF, RT",Form A
same,Crystal Form,"[3]; solid vapor diffusion, Toluene, 40° C.",Form A
same,Crystal Form,"[4]; solvent DCM, antisolvent Acetone",Form A
same,Crystal Form,"[4]; solvent DCM, antisolvent MTBE",Form A
same,Crystal Form,"[4]; solvent NMP, antisolvent MTBE",Form A
same,Degradation by reaction of counterion with the pyrimidine ring,[5],absence of this type of degradation
